According to patent US11420976B2 (priority 2020, dated 2022):
Read-outs that look alike come from different tables or passages of the source.

Tests used:
[1] = system: Human RSV-A (“Long” strain); assay: RSV-A assay (CPE, ATPlite readout in Hep-2 cells); type: cell-based; details: human respiratory syncytial virus, 120 h, Hep-2 cells, MOI 0.1, 5-day incubation, ATPlite, read-out: Human RSV-A (“Long” strain) EC50
Text: Hep-2 cells, (originally derived from tumors grown in irradiated-cortisonised weanling rats that had been injected with epidermoid carcinoma tissue from a person's larynx, but later found to be indistinguishable from HeLa cells by PCR DNA analysis), were used for the culturing of genotype A, “Long” strain RSV. Flasks were inoculated with RSV and viral stocks were collected once cytopathic effect (CPE) was greater than 90%. Viral stocks in 25% sucrose media were snap frozen using liquid nitrogen to increase viral stability. Viral stock titers were quantified by tissue culture infectious dose 50% (TCID50) using 8,000 cells per well and 3-fold viral dilutions across a 96-well plate, cultured for 4 days. Viral stock titers were also quantified by a plaque forming unit assay, as described elsewhere.
Following extensive parameter testing, the final assay is run as follows: Hep-2 cells are seeded into the inner 60 wells of a 96-well plate at 8,000 cells per well in a volume of 50 μL using Growth Media (DMEM without phenol red, 1% L-Glut, 1% Penn/Strep, 1% nonessential amino acids, 10% heat-inactivated FBS). 2-fold serial dilutions of control and test compounds are added to the wells in duplicate in a total volume of 25 μL. Viral stock is then added to the wells at a multiplicity of infection (MOI) of 0.1 in a volume of 25 μL, bringing the total volume of each well to 100 μL. The MOI is calculated using the PFU/mL, or TCID50 if unavailable. Each 96-well plate has a control column of 6 wells with cells and virus but no compound (negative control, max CPE), a column with cells but no compound or virus (positive control, minimum CPE), and a column with no cells or virus or compound (background plate/reagent control). The control wells with cells but no virus are given an additional […], of growth media containing an equal quantity of sucrose as those wells receiving the viral stock in order to keep consistent in media and volume conditions. The outer wells of the plate are filled with 125 μL of moat media (DMEM, 1% Penn/Strep) to act as a thermal and evaporative moat around the test wells. Following a 5-day incubation period, the plates are read using ATPlite (50 uL added per well), which quantifies the amount of ATP (a measure of cell health) present in each well. Assay plates are read using the Envision luminometer. […] EC50 ranges are as follows: A<0.2 μM; B≥0.2 μM.

[2] = system: rHMPV-GFP (recombinant HMPV CAN97-83, MPV-GFP1); assay: HMPV antiviral assay (eGFP fluorescence in Vero E6 cells); type: cell-based; details: Vero C1008, 120 h, read-out: rHMPV-GFP EC50
Protocol: HMPV antiviral activity was evaluated using a recombinant version of HMPV CAN97-83 engineered to contain the coding sequence for enhanced green fluorescence protein (eGFP) in the 3′ end of the virus genome (MPV-GFP1, ViraTree). Vero E6 cells (ATCC #CCL-7) were seeded at a density of 12,000 cells/100 μL/well into 96-well cell plates (VENDOR) one day prior to the assay. On the day of screening, the cell culture medium was aspirated from the wells and cells were washed twice with serum-free Eagle's Modified Essential Medium (EMEM, ATCC #) containing 1% penicillin-streptomycin (Invitrogen) (SF-EMEM). Cell washes were performed by dispensing 100 μL SF-EMEM per well and immediately aspirating the wash medium from the well. Following the second wash step, serum-free OptiMEM (Invitrogen, Cat No.) (SF-OptiMEM) containing 0.5 μg/mL TPCK-Trypsin (VENDOR) and 1% penicillin-streptomycin was added to the cells at 50 μL/well. Compounds were added into the 96-well plates using a JANUS automated liquid handling system (VENDOR). Compounds were initially diluted 1:50 into an intermediate 96-well plate containing SF-OptiMEM prior to transfer to the assay plate (25 μL/well). Each of the test compounds was tested in duplicate wells at final concentrations starting from 8 μM or 2 μM using ½ stepwise dilutions for a total of 8 points. Virus infection was performed by preparing a working stock of MPV-GFP1 at a multiplicity of infection (MOI) equal to 0.05/25 μL and aliquoting 25 μL of virus inoculum to the compound and positive control wells. SF-OptiMEM was added (25 μL/well) to the appropriate wells to serve as a virus-free negative control for the assay. The final DMSO concentration of all wells is 0.5%. Plates were incubated at 32° C., 5% CO2 for 5 days. After 5 days incubation, eGFP fluorescence intensity was measured at […] using a Spectramax i3X plate reader (VENDOR). Percent viral inhibition was calculated using the following equation: y=[[…]]×100 Where XQ is the fluorescence intensity measured in a well containing recombinant MPV-GFP1-infected, compound-treated cells and XP is the average fluorescence intensity measured in the wells containing untreated cells infected with recombinant virus. EC50 values were then calculated by non-linear regression using a four parameter curve logistic equation. The curve fit model employed was XLFit Dose Response One Site Model 200: y=(A+(B/(1+((x/C)^D)))) Where A is the minimum y value, B is the maximum y value, C is the log EC50 value, and D is the slope factor. The EC50 of each compound is listed in Table 2 and EC50 ranges are as follows: A<0.2 μM; B≥0.2 μM.

[3] = system: HRSV; details: high risk infants, prophylactic use; cited from earlier work

| Compound | EC50 [1] [µM] | EC50 [2] [µM] | EC50 ([1]; in Homo sapiens) [µM] | effective in reducing hospitalizations [3] [%] |
| --- | --- | --- | --- | --- |
| COc1cc(C(=O)NC[C@](C)(O)c2cc3c(c(-c4ccc(F)c(F)c4)n2)OC[C@@]3(N)C(F)(F)F)ccc1OC1CC1 [Example 22, N—((S)-2-((R)-3-amino-7-(3,4-difluorophenyl)-3-(trifluoromethyl)-2,3-dihydrofuro[2,3-c]pyridin-5-yl)-2-hydroxypropyl)-4-cyclopropoxy-3-methoxybenzamide] | < 0.2 | < 0.2 |  |  |
| COc1cc(C(=O)NC[C@](O)(c2cc3c(c(-c4ccc(F)c(F)c4)n2)OC[C@@]3(N)C(F)(F)F)C2CC2)ccc1OC1CC1 [Example 23, N—((S)-2-((R)-3-amino-7-(3,4-difluorophenyl)-3-(trifluoromethyl)-2,3-dihydrofuro[2,3-c]pyridin-5-yl)-2-cyclopropyl-2-hydroxyethyl)-4-cyclopropoxy-3-methoxybenzamide] | < 0.2 | < 0.2 |  |  |
| COc1cc(C(=O)NC[C@](C)(O)c2cc3c(c(-c4ccc(F)c(Cl)c4)n2)OC[C@@]3(N)C(F)(F)F)ccc1OC1CC1 [Example 24, N—((S)-2-((R)-3-amino-7-(3-chloro-4-fluorophenyl)-3-(trifluoromethyl)-2,3-dihydrofuro[2,3-c]pyridin-5-yl)-2-hydroxypropyl)-4-cyclopropoxy-3-methoxybenzamide] | < 0.2 | < 0.2 |  |  |
| COc1cc(C(=O)NC[C@](O)(c2cc3c(c(-c4ccc(F)c(Cl)c4)n2)OC[C@@]3(N)C(F)(F)F)C2CC2)ccc1OC1CC1 [Example 25, N—((S)-2-((R)-3-amino-7-(3-chloro-4-fluorophenyl)-3-(trifluoromethyl)-2,3-dihydrofuro[2,3-c]pyridin-5-yl)-2-cyclopropyl-2-hydroxyethyl)-4-cyclopropoxy-3-methoxybenzamide] | < 0.2 | < 0.2 |  |  |
| C[C@](O)(CNC(=O)c1ccc(OC2CC2)c(OC2CC2)c1)c1cc2c(c(-c3ccc(F)c(F)c3)n1)OC[C@@]2(N)C(F)(F)F [Example 26, N—((S)-2-((R)-3-amino-7-(3,4-difluorophenyl)-3-(trifluoromethyl)-2,3-dihydrofuro[2,3-c]pyridin-5-yl)-2-hydroxypropyl)-3,4-dicyclopropoxybenzamide] | < 0.2 | < 0.2 |  |  |
| N[C@@]1(C(F)(F)F)COc2c1cc([C@@](O)(CNC(=O)c1ccc(OC3CC3)c(OC3CC3)c1)C1CC1)nc2-c1ccc(F)c(F)c1 [Example 27, N—((S)-2-((R)-3-amino-7-(3,4-difluorophenyl)-3-(trifluoromethyl)-2,3-dihydrofuro[2,3-c]pyridin-5-yl)-2-cyclopropyl-2-hydroxyethyl)-3,4-dicyclopropoxybenzamide] | < 0.2 | < 0.2 |  |  |
| C[C@](O)(CNC(=O)c1ccc(OC2CC2)c(OC2CC2)c1)c1cc2c(c(-c3ccc(F)c(Cl)c3)n1)OC[C@@]2(N)C(F)(F)F [Example 28, N—((S)-2-((R)-3-amino-7-(3-chloro-4-fluorophenyl)-3-(trifluoromethyl)-2,3-dihydrofuro[2,3-c]pyridin-5-yl)-2-hydroxypropyl)-3,4-dicyclopropoxybenzamide] | < 0.2 | < 0.2 |  |  |
| N[C@@]1(C(F)(F)F)COc2c1cc([C@@](O)(CNC(=O)c1ccc(OC3CC3)c(OC3CC3)c1)C1CC1)nc2-c1ccc(F)c(Cl)c1 [Example 29] |  | > 0.2 | < 0.2 |  |
| N[C@@]1(C(F)(F)F)COc2c1cc([C@@](O)(CNC(=O)c1cc(OC3CC3)c3ncccc3c1)C1CC1)nc2-c1ccc(F)c(Cl)c1 [Example 30, N—((S)-2-((R)-3-amino-7-(3-chloro-4-fluorophenyl)-3-(trifluoromethyl)-2,3-dihydrofuro[2,3-c]pyridin-5-yl)-2-cyclopropyl-2-hydroxyethyl)-8-cyclopropoxyquinoline-6-carboxamide] | < 0.2 | > 0.2 |  |  |
| COc1cc(C(=O)NC[C@H](O)c2cc3c(c(-c4ccc(F)cc4)n2)OC[C@@]3(N)C(F)(F)F)ccc1OC1CC1 [Example 47] | > 0.2 | > 0.2 |  |  |
| COc1cc(C(=O)NCC(C)c2cc3c(c(-c4ccc(F)c(F)c4)n2)OC[C@@]3(N)C(F)(F)F)ccc1OC1CC1 (stereo partly drawn) [Example 48] | > 0.2 | > 0.2 |  |  |
| COC[C@](O)(CNC(=O)c1ccc(OC2CC2)c(OC)c1)c1cc2c(c(-c3ccc(F)cc3)n1)OC[C@@]2(N)C(F)(F)F [Example 49, N—((S)-2-((R)-3-amino-7-(4-fluorophenyl)-3-(trifluoromethyl)-2,3-dihydrofuro[2,3-c]pyridin-5-yl)-2-hydroxy-3-methoxypropyl)-4-cyclopropoxy-3-methoxybenzamide] | < 0.2 | > 0.2 |  |  |
| COc1cc(C(=O)NC[C@@](O)(CO)c2cc3c(c(-c4ccc(F)cc4)n2)OC[C@@]3(N)C(F)(F)F)ccc1OC1CC1 [Example 51, N—((S)-2-((R)-3-amino-7-(4-fluorophenyl)-3-(trifluoromethyl)-2,3-dihydrofuro[2,3-c]pyridin-5-yl)-2,3-dihydroxypropyl)-4-cyclopropoxy-3-methoxybenzamide] | < 0.2 | > 0.2 |  |  |
| N[C@@]1(C(F)(F)F)COc2c1cc([C@@](O)(CNC(=O)c1cc(OC3CC3)c3nn(C4CC4)cc3c1)C1CC1)nc2-c1ccc(F)cc1 [Example 55c, N—((S)-2-((R)-3-amino-7-(4-fluorophenyl)-3-(trifluoromethyl)-2,3-dihydrofuro[2,3-c]pyridin-5-yl)-2-cyclopropyl-2-hydroxyethyl)-7-cyclopropoxy-2-cyclopropyl-2H-indazole-5-carboxamide] | < 0.2 | < 0.2 |  |  |
| N[C@@]1(C(F)(F)F)COc2c1cc([C@@](O)(CNC(=O)c1cc(OC3CC3)c3nn(C4CC4)cc3c1)C1CC1)nc2-c1ccc(F)c(Cl)c1 [Example 55d, N—((S)-2-((R)-3-amino-7-(3-chloro-4-fluorophenyl)-3-(trifluoromethyl)-2,3-dihydrofuro[2,3-c]pyridin-5-yl)-2-cyclopropyl-2-hydroxyethyl)-7-cyclopropoxy-2-cyclopropyl-2H-indazole-5-carboxamide] | < 0.2 | < 0.2 |  |  |
| Cn1cc2cc(C(=O)NC[C@](O)(c3cc4c(c(-c5ccc(F)cc5)n3)OC[C@@]4(N)C(F)(F)F)C3CC3)cc(OC3CC3)c2n1 [Example 66, N—((S)-2-((R)-3-amino-7-(4-fluorophenyl)-3-(trifluoromethyl)-2,3-dihydrofuro[2,3-c]pyridin-5-yl)-2-cyclopropyl-2-hydroxyethyl)-7-cyclopropoxy-2-methyl-2H-indazole-5-carboxamide] | < 0.2 | < 0.2 |  |  |
| Palivizumab |  |  |  | 60 |
